In PubChem BioAssay AID602210 (Sanford-Burnham Center for Chemical Genomics, 2012):
Active and inactive are the calls of the source. No rule for the calls is given here.

Assay: H9c2 cardiomyoblast viability modulators under 2-DG – cell-based, ATPlite luminescence, rat, set 2, myocardial damage modulator project, dose response (AID 602210)
Conditions: H9c2 rat cardiomyoblasts, 2-deoxyglucose-induced death, 2 h

**Q.** Which IC50 does the source give for `CCC(c1nnnn1Cc1ccccc1)N1CCC(n2c(=O)[nH]c3ccccc32)CC1` (centres undefined) here?
**A.** 1.98 µM

**Q.** With `CC(C)CCN(C(=O)CNC(=O)c1ccco1)C(C(=O)NC1CCCCC1)c1ccco1` (centres undefined) as the compound, how does the IC50 read?
**A.** > 79 µM (inactive)

**Q.** For `Cc1ccc(Cn2c(CCNc3nc(-c4ccc(Cl)c([N+](=O)[O-])c4)cs3)nc3cc(C(=O)NCCCO)ccc32)cc1`, which IC50 is on record?
**A.** > 79 µM (inactive)

**Q.** With `CC(=O)Nc1ccc(C(=O)N/N=C/c2ccccc2OC(=O)c2ccc(Cl)cc2)cc1` as the compound, how does the IC50 read?
**A.** 14.7 µM (inactive)

**Q.** Which IC50 does the source give for `COc1cc2c(cc1OC)CN(c1nc(-c3cccnc3)nc3ccccc13)CC2` here?
**A.** 6.71 µM

**Q.** Which IC50 does the source give for `COc1ccc(-c2cc(-c3nnc(COC(=O)C4CC4)o3)c3ccccc3n2)cc1OC` here?
**A.** 8.35 µM

**Q.** For `Cc1nn(-c2ccccc2)nc1C(=O)Nc1cccc(C(=O)NC2CC2)c1`, which IC50 is on record?
**A.** 18.6 µM (inactive)

**Q.** For `O=C(NCCN1CCN(c2ccccc2F)CC1)c1cccn2c(=O)c3ccccc3nc12`, which IC50 is on record?
**A.** 11.7 µM (inactive)

**Q.** Which IC50 does the source give for `Cc1ccc(NC(=O)c2nc[nH]c2C(=O)NCCCCCCNC(=O)c2[nH]cnc2C(=O)Nc2ccc(C)cc2)cc1` here?
**A.** 0.24 µM

**Q.** For `N#Cc1cnn2cc(-c3ncc(C(F)(F)F)cc3Cl)cnc12`, which IC50 is on record?
**A.** 47.7 µM (inactive)

**Q.** Which IC50 does the source give for `COc1cc(-c2cc(NC(C)=O)c3ncc(-c4ccccc4)n3c2)cc(OC)c1OC` here?
**A.** > 79 µM (inactive)

**Q.** With `COc1cc(/C=c2\s/c(=C(/C#N)C(=O)N3CCCC3)n(-c3ccccc3)c2=O)ccc1O` as the compound, how does the IC50 read?
**A.** > 79 µM (inactive)

**Q.** Which IC50 does the source give for `CC(=O)Nc1cc(-c2ccccc2)cn2c(-c3cccc(C(C)=O)c3)cnc12` here?
**A.** 16 µM (inactive)

**Q.** Which IC50 does the source give for `COc1cccc(-c2cnc3c(NC(C)=O)cc(-c4cc(OC)c(OC)c(OC)c4)cn23)c1` here?
**A.** > 79 µM (inactive)

**Q.** For `CCOc1ccc(-n2cc(-c3ccccc3)c3c(N4CCOCC4)ncnc32)cc1`, which IC50 is on record?
**A.** 10.3 µM (inactive)

**Q.** Which IC50 does the source give for `CC(=O)NCc1ccc(-c2csc(NC(=O)CCc3nc4ccccc4c(=O)[nH]3)n2)s1` here?
**A.** 28.5 µM (inactive)

**Q.** With `COc1cc(-c2cc(C(=O)OCC(=O)NC3CC3)c3ccccc3n2)cc(OC)c1OC` as the compound, how does the IC50 read?
**A.** 13.2 µM (inactive)

**Q.** For `COC(=O)c1ccc(N)c(N=CC2=C(O)CC(C)(C)CC2=O)c1`, which IC50 is on record?
**A.** 11.9 µM (inactive)

**Q.** For `NC(=O)c1nsc(C(=O)N(c2ccccc2F)C(C(=O)NCc2ccc(F)cc2)c2ccc(O)cc2)c1N` (centres undefined), which IC50 is on record?
**A.** 3.13 µM

**Q.** For `O=CNc1cc(-c2ccc(C(=O)NC3CC3)cc2)cn2c(-c3ccc(F)c(Cl)c3)cnc12`, which IC50 is on record?
**A.** 17.2 µM (inactive)

**Q.** For `O=C(NC1CCCCC1)C(c1ccc2ncccc2c1)N(Cc1ccco1)C(=O)c1ccc2c(c1)OCCO2` (centres undefined), which IC50 is on record?
**A.** 42.5 µM (inactive)

**Q.** With `Cc1cc(C)c(S(=O)(=O)N2CCN(C(=O)c3cc(=O)[nH]c4ccccc34)CC2)c(C)c1` as the compound, how does the IC50 read?
**A.** 20 µM (inactive)

**Q.** With `COc1cc(-c2cc(NC=O)c3ncc(-c4ccccc4)n3c2)cc(OC)c1OC` as the compound, how does the IC50 read?
**A.** > 79 µM (inactive)

**Q.** For `Cc1cccc(NC(=O)c2nc[nH]c2C(=O)NCC(=O)OCc2ccccc2)c1`, which IC50 is on record?
**A.** > 79 µM (inactive)

**Q.** For `COc1cccc(-c2cnc3c(NC=O)cc(-c4cccc(C(=O)N(C)C)c4)cn23)c1`, which IC50 is on record?
**A.** > 79 µM (inactive)

**Q.** With `COc1cccc(-c2cnc3c(NC=O)cc(-c4cc(OC)c(OC)c(OC)c4)cn23)c1` as the compound, how does the IC50 read?
**A.** 14.2 µM (inactive)

**Q.** Which IC50 does the source give for `CCOC(=O)c1nc(Nc2ccc(C(=O)OC)cc2)c2ccccc2n1` here?
**A.** > 79 µM (inactive)

**Q.** For `CCOc1ccc2nc(NC(=O)CN3CCC(n4nnc5cc(F)ccc54)CC3)sc2c1`, which IC50 is on record?
**A.** 15.9 µM (inactive)

**Q.** For `CC(C)(C)C(=O)Nc1ccc(C(=O)N/N=C/c2ccccc2OC(=O)c2ccccc2)cc1`, which IC50 is on record?
**A.** > 79 µM (inactive)

**Q.** With `CC(C)C(=O)N1CCN(c2ccc(NC(=O)COc3ccccc3[N+](=O)[O-])cc2)CC1` as the compound, how does the IC50 read?
**A.** 5.55 µM

**Q.** With `COc1ccccc1OCC(=O)Nc1cccc(-c2nnc(-c3ccco3)o2)c1` as the compound, how does the IC50 read?
**A.** > 79 µM (inactive)

**Q.** With `Cc1ccc(NC(=O)c2cc(-c3cccs3)nc3ccccc23)nc1` as the compound, how does the IC50 read?
**A.** > 79 µM (inactive)

**Q.** With `CN(C)S(=O)(=O)c1ccc2[nH]cc(/C=C/c3nc4ccccc4c(=O)n3-c3ccccc3)c2c1` as the compound, how does the IC50 read?
**A.** 4.24 µM

**Q.** For `Cc1ccc(C)c(NC(=O)C(Sc2nc3ccccc3c(=O)n2CC(C)C)c2ccccc2)c1` (centres undefined), which IC50 is on record?
**A.** 0.34 µM

**Q.** Which IC50 does the source give for `COc1ccc(-c2csc(NC(=O)c3cccc(N4C(=O)CCC4=O)c3)n2)cc1OC` here?
**A.** 13.1 µM (inactive)

**Q.** For `COc1ccc(-n2c(/C=C/c3ccc(O)c(OC)c3)nc3ccccc3c2=O)cc1`, which IC50 is on record?
**A.** 8.14 µM

**Q.** Which IC50 does the source give for `C#CCOc1nc(Nc2cccc([N+](=O)[O-])c2)nc(OCC#C)n1` here?
**A.** 24.9 µM (inactive)

**Q.** For `CC(=O)Nc1cc(-c2ccc(C(=O)NC3CC3)cc2)cn2c(-c3cccc(C(C)=O)c3)cnc12`, which IC50 is on record?
**A.** 23.3 µM (inactive)

**Q.** For `COc1cc(NC(=O)c2ccc(-c3cn[nH]c3)c3ccoc23)cc(OC)c1OC`, which IC50 is on record?
**A.** 15.4 µM (inactive)

**Q.** With `COc1cccc(CN(C)C(=O)C(Cc2ccccc2)NC(=O)c2ccccc2)c1OC` (centres undefined) as the compound, how does the IC50 read?
**A.** 20.8 µM (inactive)

**Q.** For `COc1ccccc1OCC(=O)N/N=C/c1cccc2cccnc12`, which IC50 is on record?
**A.** > 79 µM (inactive)

**Q.** Which IC50 does the source give for `Cc1nc(N2CCN(c3ccccn3)CC2)c2c(C)c(C(=O)Nc3ccccc3F)sc2n1` here?
**A.** 16.4 µM (inactive)

**Q.** For `CCOC(=O)C1=C(C)NC(C)=C(C(=O)OCC)C1C(=O)OCC(=O)NC1CCCCC1`, which IC50 is on record?
**A.** 7.05 µM

**Q.** Which IC50 does the source give for `Clc1ccccc1-c1nc(N/N=C/c2cccnc2)c2ccccc2n1` here?
**A.** 18.6 µM (inactive)

**Q.** With `Cc1c(/C=N/NC(=O)c2ccc(O)cc2)c2ccccn2c1C(=O)c1ccc(F)cc1` as the compound, how does the IC50 read?
**A.** > 79 µM (inactive)

**Q.** Which IC50 does the source give for `c1ccc(N2CCOCC2)c(Nc2nc3ccccc3n3cnnc23)c1` here?
**A.** 33.1 µM (inactive)

**Q.** For `COCCCN(Cc1ccco1)C(=O)Cn1ncc2c([nH]c3ccccc32)c1=O`, which IC50 is on record?
**A.** 25.5 µM (inactive)

**Q.** Which IC50 does the source give for `Cc1ncc(CO)c2cc(C(=O)Nc3ccccc3Cl)c(=Nc3cccc(C(N)=O)c3)oc12` here?
**A.** 2.43 µM

**Q.** For `CC(C)(C)NC(=O)c1cc(NC(=O)c2cccs2)cc(NC(=O)c2cccs2)c1`, which IC50 is on record?
**A.** 15.7 µM (inactive)

**Q.** With `Cc1cc(NC(=O)C2CCCCC2)nc2c1c(=O)oc1ccccc12` as the compound, how does the IC50 read?
**A.** 26.8 µM (inactive)

**Q.** With `COc1ccc(-c2cc(C(=O)Nc3ccccc3N3CCOCC3)c3ccccc3n2)cc1OC` as the compound, how does the IC50 read?
**A.** 7.58 µM

**Q.** Which IC50 does the source give for `COc1ccc(Cl)cc1NC(=O)CCS(=O)(=O)c1cc2c(cc1C)NC(=O)CO2` here?
**A.** 26 µM (inactive)

**Q.** For `CNC(=O)c1ccc(-c2sc3nc(N4CCOCC4)c4c(c3c2N)CC(C)(C)OC4)o1`, which IC50 is on record?
**A.** 21.3 µM (inactive)

**Q.** Which IC50 does the source give for `CC12C=CC(=O)CC1CCC1C2CCC2(C)C(O)C(O)CC12` (centres undefined) here?
**A.** 21 µM (inactive)

**Q.** Which IC50 does the source give for `COc1ccc2c(c1OC)c(=O)n1c3ccc(OC(C)C(=O)NCCN4CCOCC4)cc3c3ccnc2c31` (centres undefined) here?
**A.** 46.6 µM (inactive)

**Q.** With `O=C(N/N=C/c1cn(-c2ccccc2)nc1-c1cccnc1)c1ccccc1` as the compound, how does the IC50 read?
**A.** > 79 µM (inactive)

**Q.** Which IC50 does the source give for `NC(=O)c1oc2ccccc2c1NC(=O)c1ccco1` here?
**A.** 32.2 µM (inactive)

**Q.** Which IC50 does the source give for `COc1ccc(OC)c(N(CC(=O)Nc2cccnc2)S(=O)(=O)c2ccc(OC)c(OC)c2)c1` here?
**A.** 32.2 µM (inactive)

**Q.** With `COc1cccc2cc(-c3cc(=O)oc4ccc(OCC(C)=O)cc34)oc12` as the compound, how does the IC50 read?
**A.** > 79 µM (inactive)

**Q.** For `CN1CCc2nc3ccccc3c(C(=O)OCC(=O)N(CCC#N)c3ccccc3)c2C1`, which IC50 is on record?
**A.** > 79 µM (inactive)

**Q.** With `Fc1ccc(CSc2ccc3nnc(-c4cccnc4)n3n2)cc1` as the compound, how does the IC50 read?
**A.** 44.5 µM (inactive)

**Q.** With `CC(=O)c1ccc(-c2cnc3c(NC=O)cc(-c4cccc(NS(C)(=O)=O)c4)cn23)cc1` as the compound, how does the IC50 read?
**A.** 18 µM (inactive)

**Q.** For `NC(=O)c1ccc(Nc2nnc(-c3ccc(O)cc3)c3ccccc23)cc1`, which IC50 is on record?
**A.** 34.2 µM (inactive)

**Q.** With `COc1cc(NC(=O)c2cc3nc(-c4ccccc4)cc(-c4ccccc4)n3n2)cc(OC)c1OC` as the compound, how does the IC50 read?
**A.** 7.15 µM
